Experimental data as given in patent US7459450B2, “Neuropeptide receptor modulators” (Schering Corporation, priority 2004, dated 2008).

The molecules below were run against T1, Human NPY Y1 receptors (Homo sapiens, UniProt P25929) (assay: NPY Receptor Binding Assay). Details: not given.
T1 construct: expressed in transfected cells; host or cells: CHO cells (membrane protein)
T1 sequence (P25929 1-384): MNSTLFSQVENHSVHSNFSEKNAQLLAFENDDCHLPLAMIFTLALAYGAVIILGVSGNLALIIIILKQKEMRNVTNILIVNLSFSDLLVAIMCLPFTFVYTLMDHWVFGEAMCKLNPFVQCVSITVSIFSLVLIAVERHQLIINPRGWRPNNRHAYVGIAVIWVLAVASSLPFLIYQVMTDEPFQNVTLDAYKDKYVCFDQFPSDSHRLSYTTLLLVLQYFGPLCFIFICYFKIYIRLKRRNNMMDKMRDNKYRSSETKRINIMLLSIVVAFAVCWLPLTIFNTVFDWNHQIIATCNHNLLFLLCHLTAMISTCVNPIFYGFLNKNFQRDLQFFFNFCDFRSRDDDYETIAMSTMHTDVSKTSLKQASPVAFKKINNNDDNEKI
Protocol: NPY Receptor Binding Assay
Human NPY Y1 receptors were expressed in CHO cells. Binding assays were performed in 50 mM HEPES, pH 7.2, 2.5 mM CaCl2, 1 mM MgCl2 and 0.1% BSA containing 5-10 μg of membrane protein and 0.1 nM […] in a total volume of 200 μl. Non-specific binding was determined in the presence of 1 μM NPY. The reaction mixtures were incubated for 90 minutes at room temperature then filtered through Millipore MAFC glass fiber filter plates which had been pre-soaked in 0.5% polyethleneimine. The filters were washed with phosphate-buffered saline, and radioactivity was measured in a Packard TopCount scintillation counter.

Row | Ki | Compound
1 | > 10 µM | COc1cccc2sc(NCCc3ccc(/N=C4/N[C@@H](C)C(=O)S4)cc3)nc12 [Example 368]
2 | > 10 µM | Cc1cccc2sc(NCCc3ccc(/N=C4/N[C@@H](CC(C)C)C(=O)S4)cc3)nc12 [Example 370]
3 | > 10 µM | C[C@@H]1N/C(=N/c2ccc(CCNc3nc4ccccc4s3)cc2)SC1=O [Example 400]
4 | > 10 µM | O=C(O)C[C@@H]1N/C(=N\c2ccccc2CCNc2nc3ccccc3s2)SC1=O [Example 413]
5 | > 10 µM | O=C(O)C[C@@H]1N/C(=N/c2ccc(CCNc3nc4ccc(Cl)cc4s3)cc2)SC1=O [Example 358]
6 | > 10 µM | O=C1CN/C(=N\c2cccc(CCNc3nc4ccccc4s3)c2)S1 [Example 376]
7 | > 10 µM | O=C(O)C[C@@H]1N/C(=N/c2ccc(CCNc3nc4ccc([N+](=O)[O-])cc4s3)cc2)SC1=O [Example 342]
8 | > 10 µM | CC(C)[C@@H]1N/C(=N/c2ccc(CCNc3nc4ccc(S(C)(=O)=O)cc4s3)cc2)SC1=O [Example 359]
9 | > 10 µM | CC(C)C[C@@H]1N/C(=N/c2ccc(CCNc3nc4ccc(Cl)cc4s3)cc2)SC1=O [Example 383]
10 | > 10 µM | O=C1S/C(=N\c2ccc(CCNc3nc4ccc([N+](=O)[O-])cc4s3)cc2)N2CCC[C@@H]12 [Example 341]
11 | > 10 µM | CS(=O)(=O)c1ccc2nc(NCCc3ccc(/N=C4\SC(=O)[C@@H]5CCCN45)cc3)sc2c1 [Example 352]
12 | > 10 µM | C[C@@H]1N/C(=N/c2ccc(CCNc3nc4ccc([N+](=O)[O-])cc4s3)cc2)SC1=O [Example 343]
13 | > 10 µM | CC(C)[C@@H]1N/C(=N/c2ccc(CCNc3nc4cc(Cl)c(Cl)cc4s3)cc2)SC1=O [Example 363]
14 | > 10 µM | C[C@@H]1N/C(=N/c2ccc(CCNc3nc4cc(Cl)c(Cl)cc4s3)cc2)SC1=O [Example 393]
15 | > 10 µM | COc1ccc2nc(NCCc3ccc(/N=C4/N[C@@H](C)C(=O)S4)cc3)sc2c1 [Example 349]
16 | > 10 µM | Cc1ccc2nc(NCCc3ccc(/N=C4\SC(=O)[C@@H]5CCCN45)cc3)sc2c1 [Example 379]
17 | > 10 µM | O=C1S/C(=N\c2ccc(CCNc3nc4ccc(Cl)cc4s3)cc2)N[C@H]1Cc1ccccc1 [Example 382]
18 | > 10 µM | CS(=O)(=O)c1ccc2nc(NCCc3ccc(/N=C4/N[C@@H](CC(=O)O)C(=O)S4)cc3)sc2c1 [Example 353]

Same assay, conditions: Procedure A compounds, rated A/B/C

Row | Ki | Compound
19 | 1 to 10 µM | Cc1cccc2sc(NCCc3ccc(NC4=NCCS4)cc3)nc12 [Example 23]
20 | 1 to 10 µM | Fc1ccc2nc(NCCc3ccc(NC4=NCCS4)cc3)sc2c1 [Example 21]
21 | > 10 µM | c1ccc(NC2=NCCS2)c(CCNc2nc3ccccc3s2)c1 [Example 24]

Same assay, conditions: Procedure B compounds, rated A/B/C

Row | Ki | Compound
22 | > 10 µM | CCOC(=O)N1CCN=C1Nc1ccc(CCNc2nc3ccccc3s2)cc1 [Example 26]
23 | > 10 µM | CCOC(=O)N1CC2CCCN2/C1=N\c1ccc(CCNc2nc3ccccc3s2)cc1 (centres unmarked) [Example 34]

Same assay, conditions: Procedure C compounds, rated A/B/C

Row | Ki | Compound
24 | > 10 µM | CCOC(=O)N1C(=O)[C@H](CCC(=O)O)N=C1Nc1ccc(CCNc2nc3ccccc3s2)cc1 [Example 40]
25 | > 10 µM | CCOC(=O)N1C(=O)[C@H](CC2CCCCC2)N=C1Nc1ccc(CCNc2nc3ccccc3s2)cc1 [Example 39]
26 | > 10 µM | CSCC[C@@H]1N=C(Nc2ccc(CCNc3nc4ccccc4s3)cc2)N(C(=O)c2ccccc2)C1=O [Example 54]

Same assay, conditions: Procedure E compounds, rated A/B/C

Row | Ki | Compound
27 | > 10 µM | CC1CN/C(=N/c2ccc(CCNc3nc4ccc(F)cc4s3)cc2)S1 (centres unmarked) [Example 330]
28 | > 10 µM | COc1cccc2sc(NCCc3ccc(/N=C4/NCC(C)S4)cc3)nc12 (centres unmarked) [Example 326]
29 | < 1 µM | COc1ccc(C2CCSC(Nc3ccc(CCNc4nc5ccccc5s4)cc3)=N2)cc1 (centres unmarked) [Example 333]
30 | > 10 µM | CS(=O)(=O)c1ccc2nc(NCCc3ccc(/N=C4/N[C@H]5c6ccccc6CC5S4)cc3)sc2c1 (some centres unmarked) [Example 332]

Second part, the molecule before the results:

Row | Compound | Ki
31 | COc1ccc2nc(NCCc3ccc(/N=C4/N[C@@H](Cc5ccccc5)CS4)cc3)sc2c1 [Example 81] | 1 to 10 µM
32 | CC(C)C[C@@H]1CS/C(=N\c2ccc(CCNc3nc4ccccc4s3)cc2)N1 [Example 134] | < 1 µM
33 | CCCCC1CS/C(=N\c2ccc(CCNc3nc4ccc(C)cc4s3)cc2)N1 (centres unmarked) [Example 92] | 1 to 10 µM
34 | c1ccc(CN2CCS/C2=N\c2ccc(CCNc3nc4ccccc4s3)cc2)cc1 [Example 74] | > 10 µM
35 | CCCCC1CS/C(=N\c2ccc(CCNc3nc4ccc(Cl)cc4s3)cc2)N1 (centres unmarked) [Example 106] | 1 to 10 µM
36 | C[C@@H]1CS/C(=N\c2ccc(CCNc3nc4ccc(S(C)(=O)=O)cc4s3)cc2)N1 [Example 114] | 1 to 10 µM
37 | Cc1ccc2nc(NCCc3ccc(/N=C4\SC5Cc6ccccc6[C@@H]5N4C)cc3)sc2c1 (some centres unmarked) [Example 222] | > 10 µM
38 | c1cc(CCNc2nc3ccccc3s2)cc(/N=C2\N[C@H]3c4ccccc4CC3S2)c1 (some centres unmarked) [Example 184] | > 10 µM
39 | C[C@@H]1CS/C(=N\c2ccc(CCNc3nc4ccccc4s3)cc2)N1 [Example 268] | < 1 µM
40 | Clc1cccc(C2CCSC(Nc3ccc(CCNc4nc5ccccc5s4)cc3)=N2)c1 (centres unmarked) [Example 198] | < 1 µM
41 | CCCC1CS/C(=N\c2ccc(CCNc3nc4ccc(Cl)cc4s3)cc2)N1 (centres unmarked) [Example 105] | < 1 µM
42 | Cc1ccc2nc(NCCc3ccc(N=C4NCCCS4)cc3)sc2c1 [Example 205] | < 1 µM
43 | Cc1ccc2nc(NCCc3ccc(/N=C4/N[C@@H](Cc5c[nH]cn5)CS4)cc3)sc2c1 [Example 97] | 1 to 10 µM
44 | CCC1CS/C(=N\c2ccc(CCNc3nc4ccccc4s3)cc2)N1 (centres unmarked) [Example 263] | < 1 µM
45 | O=[N+]([O-])c1ccc2nc(NCCc3ccc(/N=C4/N[C@H]5c6ccccc6CC5S4)cc3)sc2c1 (some centres unmarked) [Example 194] | > 10 µM
46 | Clc1cc2nc(NCCc3ccc(/N=C4/NC(c5ccccc5)CCS4)cc3)sc2cc1Cl (centres unmarked) [Example 66] | > 10 µM
47 | COc1ccc2nc(NCCc3ccc(/N=C4\SC5Cc6ccccc6[C@@H]5N4C)cc3)sc2c1 (some centres unmarked) [Example 77] | > 10 µM

Row | Compound | Ki
48 | COc1ccc2nc(NCCc3ccc(/N=C4\SC5CCC[C@H]5N4C)cc3)sc2c1 (some centres unmarked) [Example 78] | > 10 µM
49 | c1ccc2sc(NCCc3ccc(N=C4NCCCS4)cc3)nc2c1 [Example 202] | < 1 µM
50 | c1ccc2sc(NCCc3ccc(/N=C4/N[C@@H](Cc5c[nH]cn5)CS4)cc3)nc2c1 [Example 270] | < 1 µM
51 | Cc1ccc2nc(NCCc3ccc(/N=C4/N[C@@H](C)C(c5ccccc5)S4)cc3)sc2c1 (some centres unmarked) [Example 323] | > 10 µM
52 | Fc1ccc2nc(NCCc3ccc(/N=C4/NC5(CCCC5)CS4)cc3)sc2c1 [Example 169] | < 1 µM
53 | O=[N+]([O-])c1ccc2nc(NCCc3ccc(N=C4NCCCS4)cc3)sc2c1 [Example 62] | > 10 µM
54 | c1ccc(CCC2CCSC(Nc3ccc(CCNc4nc5ccccc5s4)cc3)=N2)cc1 (centres unmarked) [Example 197] | < 1 µM
55 | C[C@@H]1N/C(=N/c2ccc(CCNc3nc4ccccc4s3)cc2)SC1c1ccccc1 (some centres unmarked) [Example 191] | > 10 µM
56 | Cc1ccc2nc(NCCc3ccc(/N=C4\SC[C@@H]5CCCN45)cc3)sc2c1 [Example 89] | > 10 µM
57 | C=C(C)CN1/C(=N/c2ccc(CCNc3nc4ccc(C)cc4s3)cc2)SC2Cc3ccccc3[C@@H]21 (some centres unmarked) [Example 225] | > 10 µM
58 | COc1ccc2nc(NCCc3ccc(/N=C4\SC5Cc6ccccc6[C@@H]5N4C4CC4)cc3)sc2c1 (some centres unmarked) [Example 79] | > 10 µM
59 | COc1ccc2nc(NCCc3ccc(/N=C4/NC5(CCCC5)CS4)cc3)sc2c1 [Example 220] | 1 to 10 µM
60 | O=[N+]([O-])c1ccc2nc(NCCc3ccc(/N=C4/NC(c5ccccc5)CCS4)cc3)sc2c1 (centres unmarked) [Example 67] | > 10 µM
61 | c1cc(CCNc2nc3ccccc3s2)cc(/N=C2\NCCCS2)c1 [Example 69] | > 10 µM
62 | CS(=O)(=O)c1ccc2nc(NCCc3ccc(/N=C4/NC(c5ccccc5)CCS4)cc3)sc2c1 (centres unmarked) [Example 64] | 1 to 10 µM
63 | COc1ccc2nc(NCCc3ccc(/N=C4/N[C@H](CC(C)C)CS4)cc3)sc2c1 [Example 82] | < 1 µM
64 | CC[C@@H]1CS/C(=N\c2ccc(CCNc3nc4ccc(F)cc4s3)cc2)N1 [Example 167] | < 1 µM

Same assay, conditions: Procedure G compounds, rated A/B/C

Row | Ki | Compound
65 | > 10 µM | O=C(O)c1csc(Nc2ccc(CCNc3nc4ccccc4s3)cc2)n1 [Example 435]
66 | > 10 µM | c1ccc(-c2csc(Nc3ccc(CCNc4nc5ccccc5s4)cc3)n2)cc1 [Example 423]
67 | > 10 µM | Cc1ccc(-c2csc(Nc3ccc(CCNc4nc5ccccc5s4)cc3)n2)cc1 [Example 417]
68 | > 10 µM | COc1ccc(-c2csc(Nc3ccc(CCNc4nc5ccccc5s4)cc3)n2)cc1 [Example 436]
69 | > 10 µM | CCOC(=O)CC(C)(C)c1csc(Nc2ccc(CCNc3nc4ccccc4s3)cc2)n1 [Example 434]
70 | > 10 µM | COC(=O)Cc1csc(Nc2ccc(CCNc3nc4ccccc4s3)cc2)n1 [Example 431]

Same assay, conditions: Procedure H compounds, rated A/B/C

Row | Ki | Compound
71 | > 10 µM | CCCC1SC(Nc2ccc(CCNc3nc4ccccc4s3)cc2)=NC1=O (centres unmarked) [Example 446]
72 | > 10 µM | CC(O)CC1SC(Nc2ccc(CCNc3nc4ccccc4s3)cc2)=NC1=O (centres unmarked) [Example 440]
73 | > 10 µM | CCCCCC1SC(Nc2ccc(CCNc3nc4ccccc4s3)cc2)=NC1=O (centres unmarked) [Example 447]

Same assay, conditions: Table 1, rated A/B/C

Row | Ki | Compound
74 | < 1 µM | c1ccc(CCC2CCSC(Nc3ccc(CCNc4nc5ccccc5s4)cc3)=N2)cc1 (centres unmarked) [Example 13]
